According to article PMC5684613 (BioMed Research International, 2017):
In brackets after ≈: the same amount, converted by molar mass. Read-outs that look alike come from different tables or passages of the source.

Tests used:
[1] = In vitro dissolution study, USP II paddle, acetate buffer pH 4.5; type: physicochemical; settings: acetate buffer pH 4.5, after 90 min, n = 3
Method: Dissolution studies were performed using a USP II Paddle dissolution apparatus (Distek, USA). The prepared SDs were filled in 00 size capsules and placed in Japanese sinkers. The sinkers were then placed in dissolution vessels containing 900 ml of acetate buffer pH 4.5, at 75 rpm and temperature 37 ± 0.5°C. Samples (5 ml) were collected periodically at 15, 30, 45, 60, and 90 min, filtered through a 0.45 μm PVDF filter and replaced with a fresh dissolution medium (5 ml). The concentrations were analyzed at 264 nm by UV spectrophotometer.

[2] = Dissolution studies in FaSSIF and FeSSIF media; type: physicochemical; settings: n = 3
Method: These two biorelevant media, FaSSIF and FeSSIF, were developed to simulate the condition of the intestine in the fasted and fed states.
Blank FaSSIF was prepared by dissolving 6.186 g NaCl, 4.47 g NaH2PO4, and 0.348 g NaOH in 900 ml of distilled water and the pH was adjusted to 6.5 by using 1 N NaOH or HCl using pH meter. The volume was made up to 1000 ml using distilled water.
Blank FaSSIF medium (500 ml) was taken and 2.240 g SIF powder was added to it and this solution was magnetically stirred until the powder completely dissolved to obtain a clear micellar solution. The volume was made up to 1000 ml using the buffer. The solution was allowed to stand for 2 h; it becomes slightly opalescent and thereafter used. A volume of 500 ml is recommended for dissolution for simulating fasted state condition
Blank FeSSIF was prepared by dissolving 8.65 g glacial acetic acid, 11.874 g NaCl, and 4.04 g NaOH in 900 ml of distilled water and the pH was adjusted to 5.0 by using 1 N NaOH or HCl using pH meter. The volume was made up to 1000 ml using distilled water.
Blank FeSSIF medium (500 ml) was taken and 11.20 g SIF powder was added to it and this solution was magnetically stirred until the powder completely dissolved to obtain a clear micellar solution. The volume was made up to 1000 ml using the buffer and thereafter used. For simulating fed state condition 1 L dissolution fluid is recommended.

[3] = In vitro permeation study by everted gut sac method; type: in vitro ADME, albino Wistar rats; settings: male, albino Wistar, rat, pH 7.4; mucosal to serosal, n = 3; read-out: Apparent permeability coefficient mean ± SD
Method: (§1) The tissue was continuously aerated (oxygenated) with the aid of an electrical aerator. Intestinal segments of 4 cm were cut and ligated with nylon thread at one end and carefully everted on the glass rod. The everted gut sacs were filled with 500 μl of Tyrode solution and ligated at the other end and then placed inside the test tube containing 15 mL of the test solution continuously bubbled with atmospheric air at 15–20 bubbles per min separately. Test tubes were maintained at temperature 37 ± 0.5°C on water bath. The test solution outside the sac was termed as mucosal fluid, and the solution inside the sac was termed as serosal fluid.

[4] = test system: everted gut sac; test: as above; type: in vitro ADME, albino Wistar rats; settings: after 2 h, serosal fluid, 1 mg/ml DRV outside
Method: as §1

[5] = cited from earlier work
[6] = Oral pharmacokinetic study, fasted and fed state; settings: for K el / AUC(0-t) / AUC / Cmax: oral; for K el / AUC(0-t) / AUC: 70 mg/kg DRV; for AUC(0-t): AUC0-t; for AUC: AUC0-α; for Cmax: C max, 70 mg/kg DRV (8 mg/kg Ritonavir)
[7] = Phase solubility study of DRV in aqueous carrier solutions
[8] = parameters: method as in Varma and Panchagnula [30]; settings: ref Varma and Panchagnula [30], cited from earlier work
[9] = parameters: method as in Kim et al. [32]; settings: simultaneous administration of curcumin, rats; ref Kim et al. [32]; cited from earlier work
[10] = male, albino Wistar, rat, in vivo, po, 70 mg/kg, Group A (fasted)
[11] = male, albino Wistar, rat, in vivo, po, 70 mg/kg, Group B (fed)

For `CC(C)CN(C[C@@H](O)[C@H](Cc1ccccc1)NC(=O)O[C@H]1CO[C@H]2OCC[C@H]21)S(=O)(=O)c1ccc(N)cc1` [DRV, Darunavir], the “Cumulative % drug release (±SD)” value [1] was 30.9%, the “Cumulative % drug release (±SD) in FaSSIF” value ([2]; after 30 min) was 13.8 ± 0.239% and the “Cumulative % drug release (±SD) in FaSSIF” value ([2]; after 60 min) was 25.7 ± 0.512%. For the same molecule, the “Cumulative % drug release (±SD) in FaSSIF” value ([2]; after 90 min) was 31.2 ± 0.425%, the Papp at 120 min, 1 mg/ml [3] was 0.828 ± 0.12 ×10⁻⁶ cm/s and the “concentration of the drug inside the sac” value [4] was 451480 ± 4020 ng/mL. The solubility in water [5] was 150 µg/mL (≈ 274 µM), the K el ([6]; Group A (fasted)) was 0.211 ± 0.002 and the K el ([6]; Group B (fed)) was 0.228 ± 0.003. For the same molecule, the Tmax ([6]; male, albino Wistar, rat, in vivo, po, 70 mg/kg) was 1 h, the AUC(0-t) [6, 10] was 116 ng·h/mL and the AUC(0-t) [6, 11] was 258 ng·h/mL. For the same molecule, the AUC [6, 10] was 117 ng·h/mL, the AUC [6, 11] was 259 ng·h/mL and the Cmax [6, 10] was 2860 ± 366 ng/mL. For the same molecule, the Cmax [6, 11] was 5870 ± 565 ng/mL and the solubility at 72 h [7] was 150 µg/mL (≈ 274 µM).
For `CC(=O)O[C@H]1C(=O)[C@@]2(C)[C@H]([C@H](OC(=O)c3ccccc3)[C@]3(O)C[C@H](OC(=O)[C@H](O)[C@@H](NC(=O)c4ccccc4)c4ccccc4)C(C)=C1C3(C)C)[C@]1(OC(C)=O)CO[C@@H]1C[C@@H]2O` [paclitaxel], the Intrinsic permeability ([8]; in the presence of 1 mg/ml TPGS) is listed as 22 ×10⁻⁶ cm/s and the Intrinsic permeability ([8]; without TPGS) is listed as 8 ×10⁻⁶ cm/s.
For `CC(C)(C)NC(=O)[C@@H]1C[C@@H]2CCCC[C@@H]2CN1C[C@@H](O)[C@H](Cc1ccccc1)NC(=O)[C@H](CC(N)=O)NC(=O)c1ccc2ccccc2n1` [Saquinavir], the “increase of oral exposure” value [9] is listed as 2.7 fold.
